From PubChem BioAssay (NCI)
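Dose response: 5 concentrations. Exposure: 48 h. Format: 96-well plates. Endpoint: linear interpolation; highest concentration if not reached. Here, GI50 denotes the concentration required for 50% inhibition of growth. TGI marks complete inhibition of growth.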

Tests used:
Assay in all cases: NCI tumour cell line growth inhibition, 48 h
[1] = system: 786-0 renal
[2] = system: A498 renal
[3] = system: A549 NSCLC
[4] = system: ACHN renal
[5] = system: BT-549 breast
[6] = system: CAKI-1 renal
[7] = system: CCRF-CEM leukemia
[8] = system: COLO 205 colon
[9] = system: DU-145 prostate
[10] = system: EKVX NSCLC
[11] = system: HCC-2998 colon
[12] = system: HCT-116 colon
[13] = system: HCT-15 colon
[14] = system: HL-60(TB) leukemia
[15] = system: HOP-62 NSCLC
[16] = system: HOP-92 NSCLC
[17] = system: HS 578T breast
[18] = system: HT29 colon
[19] = system: IGROV1 ovarian
[20] = system: K-562 leukemia
[21] = system: KM12 colon
[22] = system: LOX IMVI melanoma
[23] = system: M14 melanoma
[24] = system: MALME-3M melanoma
[25] = system: MCF7 breast
[26] = system: MDA-MB-231 breast
[27] = system: MDA-MB-435
[28] = system: MDA-MB-468 breast
[29] = system: MOLT-4 leukemia
[30] = system: NCI-H226 lung
[31] = system: NCI-H23 lung
[32] = system: NCI-H460 lung
[33] = system: NCI-H522 lung
[34] = system: OVCAR-3 ovarian
[35] = system: OVCAR-4 ovarian
[36] = system: OVCAR-5 ovarian
[37] = system: OVCAR-8 ovarian
[38] = system: PC-3 prostate
[39] = system: RPMI-8226 leukemia
[40] = system: RXF 393 renal
[41] = system: SF-268 CNS
[42] = system: SF-295 CNS
[43] = system: SF-539 CNS
[44] = system: SK-MEL-2 melanoma
[45] = system: SK-MEL-28 melanoma
[46] = system: SK-MEL-5 melanoma
[47] = system: SK-OV-3 ovarian
[48] = system: SN12C renal
[49] = system: SNB-19 CNS
[50] = system: SNB-75 CNS
[51] = system: SR leukemia
[52] = system: SW-620 colon
[53] = system: T-47D breast
[54] = system: TK-10 renal
[55] = system: U251 CNS
[56] = system: UACC-257 melanoma
[57] = system: UACC-62 melanoma
[58] = system: UO-31 renal

## COc1ccccc1[C@H]1C(C(=O)c2ccc(Cl)cc2)C2(N[C@@H]1c1ccccc1)C(=O)Nc1ccc(Cl)cc12 (stereo not given in full)
[1]
  GI50: 8.96 µM
  TGI: 35.5 µM
[2]
  GI50: 15.3 µM
  TGI: 52.1 µM
[3]
  GI50: 2.76 µM
  TGI: > 57.5 µM
[4]
  GI50: 6.62 µM
  TGI: 53.7 µM
[5]
  GI50: 1.35 µM
  TGI: 18.6 µM
[6]
  GI50: 1.68 µM
  TGI: > 57.5 µM
[7]
  GI50: 2.14 µM
  TGI: > 57.5 µM
[8]
  GI50: 9.92 µM
  TGI: 21.1 µM
[9]
  GI50: 2.56 µM
  TGI: > 57.5 µM
[10]
  GI50: 8.12 µM
  TGI: > 57.5 µM
[11]
  GI50: 9.77 µM
  TGI: 43.8 µM
[12]
  GI50: 2.13 µM
  TGI: > 57.5 µM
[13]
  GI50: 6.98 µM
  TGI: > 57.5 µM
[14]
  GI50: 1.77 µM
  TGI: 25.2 µM
[15]
  GI50: 9.31 µM
  TGI: > 57.5 µM
[16]
  GI50: 4.52 µM
  TGI: 37.1 µM
[17]
  GI50: 2.56 µM
  TGI: 34.2 µM
[18]
  GI50: 1.73 µM
  TGI: 7.91 µM
[19]
  GI50: 9.15 µM
  TGI: > 57.5 µM
[20]
  GI50: 1.78 µM
  TGI: > 57.5 µM
[21]
  GI50: 8.36 µM
  TGI: > 57.5 µM
[22]
  GI50: 1.72 µM
  TGI: 21.2 µM
[23]
  GI50: 3.55 µM
  TGI: > 57.5 µM
[24]
  GI50: 7.44 µM
  TGI: 21.1 µM
[25]
  GI50: 2 µM
  TGI: > 57.5 µM
[26]
  GI50: 1.36 µM
  TGI: 12.5 µM
[27]
  GI50: 1.82 µM
  TGI: 8.94 µM
[28]
  GI50: 1.38 µM
  TGI: 16.2 µM
[29]
  GI50: 1.92 µM
  TGI: > 57.5 µM
[30]
  GI50: 8.32 µM
  TGI: > 57.5 µM
[31]
  GI50: 8.68 µM
  TGI: > 57.5 µM
[32]
  GI50: 2.32 µM
[33]
  GI50: 1.3 µM
  TGI: 5.51 µM
[34]
  GI50: 2.76 µM
  TGI: > 57.5 µM
[35]
  GI50: 10.4 µM
  TGI: > 57.5 µM
[36]
  GI50: 8.44 µM
  TGI: > 57.5 µM
[37]
  GI50: 7.52 µM
  TGI: > 57.5 µM
[38]
  GI50: 1.46 µM
  TGI: > 57.5 µM
[39]
  GI50: 5.91 µM
  TGI: 50.7 µM
[40]
  GI50: 1.66 µM
  TGI: 13.8 µM
[41]
  GI50: 9.79 µM
  TGI: > 57.5 µM
[42]
  GI50: 3.43 µM
  TGI: > 57.5 µM
[43]
  GI50: 8.51 µM
  TGI: 30.3 µM
[44]
  GI50: 4.08 µM
  TGI: 13.6 µM
[45]
  GI50: 16.7 µM
  TGI: > 57.5 µM
[46]
  GI50: 2.69 µM
  TGI: 10.6 µM
[47]
  GI50: 5.17 µM
  TGI: > 57.5 µM
[48]
  GI50: 2.83 µM
  TGI: 13.5 µM
[49]
  GI50: 14 µM
  TGI: > 57.5 µM
[50]
  GI50: 2.27 µM
  TGI: > 57.5 µM
[51]
  GI50: 1.86 µM
  TGI: 26.6 µM
[52]
  GI50: 4.28 µM
  TGI: > 57.5 µM
[53]
  GI50: 4.61 µM
  TGI: > 57.5 µM
[54]
  GI50: 15.8 µM
  TGI: > 57.5 µM
[55]
  GI50: 2.86 µM
  TGI: > 57.5 µM
[56]
  GI50: 4.86 µM
  TGI: > 57.5 µM
[57]
  GI50: 1.72 µM
  TGI: 8.69 µM
[58]
  GI50: 2.26 µM
  TGI: > 57.5 µM
